Patent publication US20250195490A1, “ALPHA-METHYLENE AND AMINOMETHYL LACTONES AND LACTAMS FOR TREATMENT OF CLOSTRIDIOIDES DIFFICILE INFECTION (CDI)” (Purdue Research Foundation, priority 2022, published 2025)
Values after ≈ are worked out from the molar mass of the structure shown.

Assays:
[1] = system: L. crispatus; assay: MIC against human normal gut microbiota: L. crispatus; assay type: cell-based, Lactobacillus crispatus
Description: (§1) The activity of the selected lactones against the human gut microbiota was also examined. Microbiota interfere with C. difficile's ability to colonize the gastrointestinal tract and subsequently cause infection. Many antibiotics inhibit/kill the endogenous microflora, which permits enhanced colonization by C. difficile and infection. Three different bacterial species that are present in the gut microflora were used in this experiment; Bifidobacterium (anaerobic Gram-positive bacteria), Bacteroides (anaerobic Gram-negative bacteria) and Lactobacillus (microaerophilic Gram-positive bacteria). Ideal compounds/drugs are those with selective antibacterial activity against C. difficile so as to protect the indigenous microflora present in the GI tract from being damaged/killed (which will exacerbate infections caused by C. difficile).
(§2) Bifidobacterium and Bacteroides were first grown for 48 hours at 37° C., anaerobically, using brain heart infusion supplemented (BHIS) agar (brain heart infusion agar supplemented with hemin, vitamin K and L-cysteine). Lactobacillus was cultivated on MRS agar and incubated in the presence of 5% CO2 for 48 hours at 37° C. Each bacterium was suspended in phosphate-buffered saline (PBS) to achieve 0.5 McFarland standard and subsequently diluted in brain heart infusion supplemented broth (for Bifidobacterium and Bacteroides) or in MRS broth (for Lactobacillus) to achieve a bacterial inoculum of approximately 5×10^5 CFU/mL. Bacteria were then seeded in 96-well plates containing serial dilutions of the compounds and incubated for 48 hours. MICs reported in Table 4 are the minimum concentration of compound/control drug that inhibited the visual growth of bacteria.

[2] = system: E. faecium; assay: Broth microdilution against vancomycin-resistant E. faecium; assay type: cell-based, Enterococcus faecium; details: gradient 128 to 1 μg/mL
Method: (§3) Method: The minimum inhibitory concentration (MIC) of the compounds and control drugs, linezolid (antibiotic), vancomycin (antibiotic), 5-fluorocytosine (5-FC, antifungal drug), and fluconazole (antifungal drug) was determined using the broth microdilution method according to the guidelines outlined by the Clinical and Laboratory Standards Institute (CLSI) against clinically relevant bacterial (methicillin-resistant Staphylococcus aureus (MRSA), vancomycin-resistant Enterococcus faecalis (VRE), vancomycin-resistant Enterococcus faecium (VRE), Clostridioides difficile and Escherichia coli) and fungal (Candida albicans) strains. A solution equivalent to 0.5 McFarland standard was prepared from each strain and diluted in cation-adjusted Mueller-Hinton broth (for S. aureus and E. coli), tryptone soy broth (for E. faecalis), or brain heart infusion broth (for E. faecium) to achieve a bacterial inoculum of about 5×10^5 CFU/mL. C. difficile strains were cultured in brain heart infusion broth supplemented with hemin and vitamin K. C. albicans was diluted in RPMI medium supplemented with 3-(N-morpholino) propanesulfonic acid to achieve a fungal concentration of about 1.5×10^3 CFU/mL. Compounds and control drugs were added in the first row of the 96-well plates and diluted with media containing bacteria (to achieve a concentration gradient ranging from 128 to 1 μg/mL). For MRSA, VRE, and E. coli strains, plates were then incubated aerobically at 37° C. for at least 18 hours. C. albicans was incubated aerobically at 37° C. for 24 hours. Plates containing C. difficile were incubated anaerobically at […] for 48 hours.

[3] = system: Bi. longum; assay: MIC against human normal gut microbiota: Bifidobacterium longum; assay type: cell-based; details: Bi. longum HM 848
Description: as §1, §2

[4] = system: L. gasseri; assay: MIC against human normal gut microbiota: L. gasseri; assay type: cell-based, Lactobacillus gasseri; details: L. gasseri HM 407
Description: as §1, §2

[5] = system: E. faecalis (VRE); assay: microbe, parasite or virus in culture; assay type: cell-based, Enterococcus faecalis; details: aerobic, 37° C., at least 18 hours
Method: as §3

[6] = system: L. reuteri; assay: MIC against human normal gut microbiota: L. reuteri; assay type: cell-based, Lactobacillus reuteri; details: L. reuteri HM 120
Description: as §1, §2

[7] = system: MRSA (USA300); assay: microbe, parasite or virus in culture; assay type: cell-based, Staphylococcus aureus; details: aerobic, 37° C., at least 18 hours
Method: as §3

[8] = system: C. albicans; assay: Broth microdilution against Candida albicans; assay type: cell-based; details: gradient 128 to 1 μg/mL, 24 hours
Method: as §3

[9] = system: Bi. breve; assay: MIC against human normal gut microbiota: Bifidobacterium breve; assay type: cell-based; details: Bi. breve HM 856
Description: as §1, §2

[10] = system: Ba. fragilis; assay: MIC against human normal gut microbiota: Bacteroides fragilis; assay type: cell-based
Description: as §1, §2

[11] = system: L. casei; assay: MIC against human normal gut microbiota: L. casei; assay type: cell-based, Lactobacillus casei; details: L. casei HM 334
Description: as §1, §2

[12] = system: Clostridioides difficile; assay: MIC by broth microdilution against Clostridioides difficile (Table 1); assay type: cell-based; details: anaerobic, 48 hours; strain BAA-1870
Method: as §3

[13] = system: clinically important Clostridioides difficile strains; assay: MIC against clinically important Clostridioides difficile strains; assay type: cell-based
Method: (§4) The antibacterial activity of compounds 48, 50, 51, 61 and 85 against a panel of Clostridioides difficile strains was evaluated. A bacterial solution equivalent to 0.5 McFarland standard was prepared and diluted in brain heart infusion broth supplemented with hemin and vitamin K. Compounds and control drugs were added in the first row of 96-well plates and serially diluted with media containing bacteria (to achieve a concentration gradient ranging from 128 to 1 μg/mL). Plates were then incubated anaerobically at […] for 48 hours.

[14] = system: hypervirulent Clostridioides difficile strains; assay: MIC against hypervirulent Clostridioides difficile strains; assay type: cell-based
Method: as §4

[15] = system: E. coli (TolC mutant); assay: MIC by broth microdilution against E. coli (TolC mutant); assay type: cell-based, Escherichia coli; details: aerobic, 37° C., at least 18 hours
Method: as §3

[16] = system: Ba. dorsei; assay: MIC against human normal gut microbiota: Bacteroides dorsei; assay type: cell-based
Description: as §1, §2

| SMILES | MIC ([1]; L. crispatus HM 375) [µg/mL] | MIC ([1]; L. crispatus HM 421) [µg/mL] | inhibition of the tested strains of E. faecium [2] | MIC [3] [µg/mL] | MIC [4] [µg/mL] | MIC E. faecalis (VRE) [5] [µg/mL] | MIC [6] [µg/mL] | MIC MRSA (USA300) [7] [µg/mL] | activity against C. albicans [8] | MIC [9] [µg/mL] | MIC ([10]; Ba. fragilis HM 709) [µg/mL] | MIC ([10]; Ba. fragilis HM 710) [µg/mL] | MIC ([10]; Ba. fragilis HM 711) [µg/mL] | MIC ([10]; Ba. fragilis HM 714) [µg/mL] | MIC [11] [µg/mL] | MIC Clostridioides difficile [12] [µg/mL] | MIC ([13]; CD strain 16) [µg/mL] | MIC ([13]; CD strain 18) [µg/mL] | MIC ([13]; CD strain 19) [µg/mL] | MIC ([13]; CD strain 1801) [µg/mL] | further results |
| --- | --- | --- | --- | --- | --- | --- | --- | --- | --- | --- | --- | --- | --- | --- | --- | --- | --- | --- | --- | --- | --- |
| CC(C)(C)[Si](C)(C)OCCC1OC(=O)C(CN2CCCCC2)C1c1cccc(Br)c1 (racemic) [Compound 48] | >128 | >128 | did not inhibit | >128 | >128 | >128 | >128 | >128 | inactive | >128 | >128 | >128 | >128 | >128 | >128 | 8 (≈ 16.1 µM) | 4 (≈ 8.06 µM) | 2 (≈ 4.03 µM) | 4 (≈ 8.06 µM) | 8 (≈ 16.1 µM) | MIC ([13]; CD strain 43255): 8 µg/mL (≈ 16.1 µM); MIC ([13]; CD strain P6): 8 µg/mL (≈ 16.1 µM); MIC ([13]; CD strain P7): 2 µg/mL (≈ 4.03 µM); MIC ([13]; CD strain P13): 2 µg/mL (≈ 4.03 µM); MIC ([13]; CD strain P19): 2 µg/mL (≈ 4.03 µM); MIC ([14]; CD strain 81): 16 µg/mL (≈ 32.2 µM); MIC ([14]; CD strain 82): 8 µg/mL (≈ 16.1 µM); MIC ([14]; CD strain 83): 8 µg/mL (≈ 16.1 µM); MIC ([14]; CD strain 84): 8 µg/mL (≈ 16.1 µM); MIC ([14]; CD strain 85): 8 µg/mL (≈ 16.1 µM); MIC ([14]; CD strain 86): 8 µg/mL (≈ 16.1 µM); MIC ([14]; CD strain 87): 4 µg/mL (≈ 8.06 µM); MIC ([14]; CD strain 90): 4 µg/mL (≈ 8.06 µM); MIC ([14]; CD strain 49279): 8 µg/mL (≈ 16.1 µM); MIC ([14]; CD strain 49287): 4 µg/mL (≈ 8.06 µM); MIC ([14]; CD strain 49291): 4 µg/mL (≈ 8.06 µM); MIC E. coli (TolC mutant) [15]: >128 µg/mL; MIC ([16]; Ba. dorsei HM 29): >128 µg/mL; MIC ([16]; Ba. dorsei HM 717): >128 µg/mL |
| C=C1C(=O)OC(CCCCCCCC)C1C=Cc1ccccc1 (racemic) [Compound 51] | >128 | >128 | did not inhibit | >128 | >128 | >128 | >128 | >128 | inactive | >128 | >128 | >128 | >128 | >128 | >128 | 8 (≈ 25.6 µM) | 16 (≈ 51.2 µM) | 2 (≈ 6.4 µM) | 16 (≈ 51.2 µM) | 32 (≈ 102 µM) | MIC ([13]; CD strain 43255): 16 µg/mL (≈ 51.2 µM); MIC ([13]; CD strain P6): 8 µg/mL (≈ 25.6 µM); MIC ([13]; CD strain P7): 16 µg/mL (≈ 51.2 µM); MIC ([13]; CD strain P13): 2 µg/mL (≈ 6.4 µM); MIC ([13]; CD strain P19): 16 µg/mL (≈ 51.2 µM); MIC ([14]; CD strain 81): 16 µg/mL (≈ 51.2 µM); MIC ([14]; CD strain 82): 16 µg/mL (≈ 51.2 µM); MIC ([14]; CD strain 83): 16 µg/mL (≈ 51.2 µM); MIC ([14]; CD strain 84): 64 µg/mL (≈ 205 µM); MIC ([14]; CD strain 85): 64 µg/mL (≈ 205 µM); MIC ([14]; CD strain 86): 32 µg/mL (≈ 102 µM); MIC ([14]; CD strain 87): 32 µg/mL (≈ 102 µM); MIC ([14]; CD strain 90): 4 µg/mL (≈ 12.8 µM); MIC ([14]; CD strain 49279): 16 µg/mL (≈ 51.2 µM); MIC ([14]; CD strain 49287): 8 µg/mL (≈ 25.6 µM); MIC ([14]; CD strain 49291): 8 µg/mL (≈ 25.6 µM); MIC E. coli (TolC mutant) [15]: >128 µg/mL; MIC ([16]; Ba. dorsei HM 29): >128 µg/mL; MIC ([16]; Ba. dorsei HM 717): >128 µg/mL |
